Assay results published in article PMC11355700, “Antioxidant and Skin-Whitening Efficacy of a Novel Decapeptide (DP, [sequence]) Derived from Fish By-Products” (Marine Drugs, 2024).

What was measured:
[1] = test system: B16F10 melanoma cells; assay: Melanin content and morphology in α-MSH-induced B16F10 melanoma cells; format: cell-based, mouse; settings: for Melanin content: α-MSH (200 nM) 24 h, α-MSH treated group 152.36%, 405 nm
Method: (§1) B16F10 melanoma cells were obtained from the KCLB and cultured in DMEM medium supplemented with 10% FBS (Gibco BRL, Grand Island, NY, USA) and 1% penicillin. The cells were incubated in a humidified incubator at 37 °C and 5% CO2.
To measure melanin production in B16F10 cells, cells were seeded in 6-well plates at a density of 5 × 10^4 cells/well. After 24 h, the medium was replaced with fresh medium containing 2% FBS, 200 nM α-MSH, and various concentrations of DP. […] After incubation, the cells were washed with PBS, harvested by centrifugation, and the melanin content was visually inspected. The harvested cells were dissolved in 400 μL of 0.2 N NaOH solution and incubated at 60 °C for 1 h. The absorbance was measured at 405 nm using a microplate reader.

[2] = test system: HaCaT cells; assay: Cell viability (MTT) of H2O2-treated HaCaT cells; format: cell-based, human; settings: DP 50, 100, 200 μM with H2O2 500 μM, 24 h, n = 3
Method: (§2) The cell line used in the experiment, the HaCaT cell line, a human keratinocyte, was purchased from the Korea Cell Line Bank (KCLB, Seoul, Republic of Korea). HaCaT cells were cultured in a DMEM medium supplemented with 10% FBS and 1% penicillin–streptomycin. The cells were subcultured every 2 to 3 days in an incubator maintained at 37 °C and 5% CO2.
To assess the cytotoxicity of DP and H2O2, cells (1 × 10^4 in a 96-well plate) were cultured at 37 °C and 5% CO2 for 24 h. The cultured cells were then treated with DP and H2O2. After 24 h of treatment, 10 μL of MTT (5 mg/mL) solution was added, and the cells were incubated for 4 h. Following this, the supernatant was removed, and 100 μL of DMSO was added to each well. The absorbance was measured at 550 nm using an ELISA reader.

[3] = Ferric reducing antioxidant power (FRAP); format: biochemical; settings: FRAP reagent pH 3.6, 5 min, 37 °C, 593 nm, n = 3
Method: FRAP was measured using the method adapted from Benzie and Strain [46]. The FRAP reagent was prepared by mixing a 300 mM sodium acetate buffer (pH 3.6), a 10 mM 2,4,6-tripyridyl-s-triazine (TPTZ) solution dissolved in 40 mM HCl, and a 20 mM FeCl3 solution in a 10:1:1 ratio just before the experiment. A 10 μL sample of each concentration was mixed with 200 μL of FRAP reagent, incubated for 5 min at 37 °C, and then the absorbance was measured at 593 nm using a Microplate Spectrophotometer (xMarkTM, BIO-RAD, Hercules, CA, USA). The FRAP value of the sample was determined by applying the absorbance values to a standard calibration curve prepared with 0–5 mM FeSO4·H2O, and the results were expressed as FeSO4 equivalent mM/μM.

[4] = previous research; cited from earlier work
Text: (§3) This study aims to evaluate the antioxidant and skin-whitening effects of this novel decapeptide (DP) through in vitro and in silico analyses and to establish its potential as a new skin-whitening agent.

[5] = test system: tyrosinase; settings: previous research; cited from earlier work
Text: as §3

[6] = test system: HaCaT cells; assay: ROS generation (DCFH-DA) in H2O2-treated HaCaT cells; format: cell-based, human; settings: DP 50, 100, 200 μM; H2O2 500 μM, 24 h; DCFH-DA 25 μM, 30 min; n = 3
Method: as §2
HaCaT cells were seeded at 1 × 10^4 cells per well in a 96-well black plate and cultured for 24 h. The cultured cells were treated with DP at concentrations of 50, 100, and 200 μM and then exposed to 500 μM H2O2 for 24 h to induce ROS generation. After H2O2 treatment, the cells were stained with 25 μM dichlorodihydro-fluorescein diacetate (DCFH-DA) for 30 min. The fluorescence intensity corresponding to intracellular ROS production was measured using a fluorescent spectrophotometer at an excitation wavelength of 485 nm and an emission wavelength of 530 nm. The results were expressed as ROS production (%) relative to the fluorescence measurement value of the untreated control, which was set to 100.

[7] = test system: MITF mRNA; assay: RT-PCR of MITF mRNA in α-MSH-stimulated B16F10 cells; format: cell-based, mouse; settings: 0.1, 1, and 10 μM; α-MSH 200 nM; normalized to GAPDH
Method: as §1
(§4) Total RNA was extracted using the High Pure RNA Isolation Kit (Invitrogen Co., Waltham, MA, USA) according to the manufacturer’s instructions and quantified using a NanoDrop (Thermo Scientific, Waltham, MA, USA). For the reverse transcription reaction, 1 μg of isolated RNA and 1 μL of oligo DT (100 pM) were combined with DEPC to a total volume of 11 μL, followed by the reverse transcription reaction using the RT Premix Kit (Bioneer Co., Daejeon, Republic of Korea) as per the manufacturer’s protocol. PCR for MITF, Tyrosinase, and MC1R genes was conducted using 2 μL of the cDNA products obtained from the reverse transcription reaction, with the PCR Premix Kit (Bioneer Co.) according to the manufacturer’s instructions. The cDNA products amplified by reverse transcription and polymerase chain reaction were analyzed by electrophoresis on 2.0% agarose gels containing ethidium bromide.

[8] = test system: B16F10 melanoma cells; assay: Cytotoxicity (MTT) in B16F10 melanoma cells; format: cell-based, mouse; settings: 12.5, 50, and 100 μM, 24 h
Method: as §1
To determine the cytotoxicity of DP and establish the concentration range for the experiment, an MTT assay was conducted. Cells were seeded in 96-well plates at a density of 1.0 × 10^4 cells/well. After 24 h, once the cells were fully attached, the medium was replaced with fresh medium containing 200 nM α-MSH and various concentrations of DP. After another 24 h of incubation, an MTT assay was performed.

[9] = test system: MC1R mRNA; assay: RT-PCR of MC1R mRNA in α-MSH-stimulated B16F10 cells; format: cell-based, mouse; settings: 0.1, 1, and 10 μM; α-MSH 200 nM; normalized to GAPDH
Method: as §1, §4

[10] = test system: tyrosinase mRNA; assay: RT-PCR of tyrosinase mRNA in α-MSH-stimulated B16F10 cells; format: cell-based, mouse; settings: 0.1, 1, and 10 μM; α-MSH 200 nM; normalized to GAPDH
Method: as §1, §4

[11] = test system: mushroom tyrosinase; assay: Tyrosinase inhibitory activity (DOPA chrome formation); format: biochemical; settings: DL-DOPA substrate, pH 6.8, 37 °C, 10 min, 475 nm
Method: The inhibitory activity of tyrosinase, which is involved in the key steps of melanin synthesis, was measured using a colorimetric method modified from Masamoto et al. by detecting the formation of DOPA chrome as a result of the enzyme’s action. As a substrate, a mixture containing 0.2 mL of 5 mM DL-DOPA solution, 0.2 mL of 0.1 M phosphate buffer (pH 6.8), and 0.5 mL of sample solution was prepared. To this mixture, 0.1 mL of mushroom tyrosinase (Sigma Co., 250 unit/mL) was added and incubated at 37 °C for 10 min. After incubation, the absorbance was measured at a wavelength of 475 nm to calculate the tyrosinase inhibitory activity.

[12] = ABTS radical scavenging activity; format: biochemical; settings: n = 3
Method: The ABTS radical scavenging activity of C. notate head hydrolysate was determined by an adaptation of the ABTS radical cation decolorization assay of Re et al.. A 7 mM ABTS solution and a 2.45 mM potassium persulfate (Sigma Co., Fukushima, Japan) solution were mixed (v/v) to a final concentration and allowed to stand in the dark at room temperature (RT) for 24 h. Afterward, distilled water was added to dilute the solution until the absorbance at 732 nm reached 0.70 (±0.02). Then, 990 μL of this diluted ABTS solution was mixed with 10 μL of the sample solution and incubated at RT for 1 min. The absorbance was measured at 732 nm (Figure 1).

Tyrosinase inhibitory activity ([11]; 62.5 μM): 7.05%
Tyrosinase inhibitory activity ([11]; 125 μM): 19.62%
Tyrosinase inhibitory activity ([11]; 250 μM): 26.29%
Tyrosinase inhibitory activity ([11]; 500 μM): 62.67%
Tyrosinase inhibitory activity ([11]; 1000 μM): 84.38%
Sequence: KGYSSYICDK [DP]
Melanin content ([1]; 0.1 μM): 120.32%
Melanin content ([1]; 1 μM): 105.24%
Melanin content ([1]; 10 μM): 83.21%
Melanin formation, morphological observation ([1]; starting from 0.1 μM, α-MSH 200 nM, 200× magnification): melanin formation was inhibited starting from the 0.1 μM concentration
Cell viability of H2O2-treated HaCaT cells [2]: enhanced cell viability in a dose-dependent manner
FRAP activity vs Vitamin C ([3]; 1000 μM, p < 0.05): significant activity at 1000 μM, comparable to Vitamin C
FRAP activity, concentration dependence ([3]; FeSO4 equivalents): dose-dependent FRAP activity
Free radical scavenging activity [4]: free radical scavenging
Tyrosinase inhibitory activity [5]: tyrosinase inhibitory activities
ROS levels in H2O2-treated HaCaT cells [6]: significantly reduced
MITF mRNA level [7]: dose-dependent and significant decrease
Cytotoxicity in B16F10 melanoma cells [8]: No cytotoxicity was observed
MC1R mRNA level [9]: dose-dependent and significant decrease
Tyrosinase mRNA level [10]: dose-dependent and significant decrease
ABTS radical scavenging, concentration dependence ([12]; 732 nm): concentration-dependent ABTS radical scavenging activity
ABTS radical scavenging ([12]; concentrations above 20 μM, 732 nm): over 90%
ABTS radical scavenging vs Vit. C ([12]; concentrations above 20 μM, p < 0.05): significantly outperforming Vit. C
